Test results reported in EP0832891B1, “Dihydrobenzo (B) indeno (2,1-D) thiophene compounds, intermediates, processes, compositions, and methods” (ELI LILLY AND COMPANY, priority 1996, dated 1998).
pEC50: −log10 of the molar value. Marks after values point to notes of the source that are not given here.

Tests used:
[1] = system: Eosinophil peroxidase; set-up: species or system Sprague Dawley rats; conditions: rat, in vivo
Description: (§1) Seventy-five day old female Sprague Dawley rats (weight range of 200 to 225g) were obtained from Charles River Laboratories (Portage, MI). The animals were either bilaterally ovariectomized (OVX) or exposed to a Sham surgical procedure at Charles River Laboratories, and then shipped after one week. Upon arrival, they were housed in metal hanging cages in groups of 3 or 4 per cage and had ad libitum access to food (calcium content approximately 0.5%) and water for one week. Room temperature was maintained at 22.2° ± 1.7° C with a minimum relative humidity of 40%. The photoperiod in the room was 12 hours light and 12 hours dark.
(§2) Dosing Regimen Tissue Collection. After a one week acclimation period (therefore, two weeks post-OVX) daily dosing with test compound was initiated. […] The animals were then sacrificed by asphyxiation with CO2, the uterus was removed through a midline incision, and a wet uterine weight was determined.
Uterine Eosinophil Peroxidase (EPO) Assay. […] Upon addition of 0.01% hydrogen peroxide and 10 mM O-phenylenediamine (final concentrations) in Tris buffer, increase in absorbance was monitored for one minute at 450 nm. […] The maximal velocity of a 15 second interval was determined over the initial, linear portion of the reaction curve.

[2] = system: ovariectomized rats; set-up: species or system Sprague Dawley rats; conditions: rat, in vivo, po, 0.1 mg/kg/day
Protocol: (§3) In the examples illustrating the methods, a postmenopausal model was used in which effects of different treatments upon circulating lipids were determined.
as §1
as §2, with “initiated. 17α-ethynyl estradiol or the test compound were given orally, unless otherwise stated, as a suspension in 1% carboxymethylcellulose or dissolved in 20% cyclodextrin. Animals were dosed daily for 4 days.” for “initiated.”

[3] = system: ovariectomized rats; assay: Serum cholesterol analysis in ovariectomized rats; assay type: in vivo, Sprague Dawley rats; conditions: for Serum Cholest. % Decrease: daily for 4 days, versus ovariectomized controls
Protocol: as §3, §1
Dosing Regimen Tissue Collection. After a one week acclimation period (therefore, two weeks post-OVX) daily dosing with test compound was initiated. 17α-ethynyl estradiol or the test compound were given orally, unless otherwise stated, as a suspension in 1% carboxymethylcellulose or dissolved in 20% cyclodextrin. Animals were dosed daily for 4 days. Following the dosing regimen, animals were weighed and anesthetized with a ketamine: xylazine (2:1, V:V) mixture and a blood sample was collected by cardiac puncture. The animals were then sacrificed by asphyxiation with CO2, the uterus was removed through a midline incision, and a wet uterine weight was determined.
Cholesterol Analysis. Blood samples were allowed to clot at room temperature for 2 hours, and serum was obtained following centrifugation for 10 minutes at 3000 rpm. Serum cholesterol was determined using a Boehringer Mannheim Diagnostics high performance cholesterol assay. Briefly the cholesterol was oxidized to cholest-4-en-3-one and hydrogen peroxide. The hydrogen peroxide was then reacted with phenol and 4-aminophenazone in the presence of peroxidase to produce a p-quinone imine dye, which was read spectrophotemetrically at 500 nm. Cholesterol concentration was then calculated against a standard curve.

[4] = system: MCF-7 breast adenocarcinoma cells; assay: MCF-7 Proliferation Assay (tritiated thymidine uptake); assay type: cell-based; conditions: Homo sapiens, MCF7; MCF-7 cells, 48 hours with drug, tritiated thymidine pulse 4 hours
Protocol: MCF-7 breast adenocarcinoma cells (ATCC HTB 22) were maintained in MEM (minimal essential medium, phenol red-free, Sigma, St. Louis, MO) supplimented with 10% fetal bovine serum (FBS) (V/V), L-glutamine (2 mM), sodium pyruvate (1 mM), HEPES {(N-[2-hydroxyethyl]piperazine-N'-[2-ethanesulfonic acid]10 mM}, non-essential amino acids and bovine insulin (1 µg/mL) (maintenance medium). Ten days prior to assay, MCF-7 cells were switched to maintenance medium supplemented with 10% dextran coated charcoal stripped fetal bovine serum (DCC-FBS) assay medium) in place of 10% FBS to deplete internal stores of steroids. MCF-7 cells were removed from maintenance flasks using cell dissociation medium (Ca++/Mg++ free HBSS (phenol red-free) supplemented with 10 mM HEPES and 2 mM EDTA). Cells were washed twice with assay medium and adjusted to 80,000 cells/mL. Approximately […] (8,000 cells) were added to flat-bottom microculture wells (Costar 3596) and incubated at 37° C in a 5% CO2 humidified incubator for 48 hours to allow for cell adherence and equilibration after transfer. Serial dilutions of drugs or DMSO as a diluent control were prepared in assay medium and […] to triplicate microcultures […]. […] Samples were counted by liquid scintillation using a Wallace BetaPlace β counter.

C#C[C@]1(O)CC[C@H]2[C@@H]3CCc4cc(O)ccc4[C@H]3CC[C@@]21C [EE2, 17α-ethynyl estradiol, reference compound]
Uterine Eosinophil (Vmax) [1]: 357.3* | eosinophil infiltration into the uterus (result in words) [1]: substantial, expected increase in eosinophil infiltration | uterine weight (result in words) [2]: substantially greater than the uterine weight of ovariectomized test animals | Serum Cholest. % Decrease ([3]; 0.1 mg/kg PO): 95.2* % | serum cholesterol (result in words) ([3]; compared to ovariectomized control animals, EE2 orally at 0.1 mg/kg/day): caused a decrease in serum cholesterol

Oc1ccc2c(c1)S[C@H]1c3ccccc3[C@@H](c3ccc(OCCN4CCCCC4)cc3)[C@@H]21 [Example 3]
pEC50 [4]: 7.00 | Serum Cholest. % Decrease ([3]; 0.1 mg/kg PO): 12.0% | Serum Cholest. % Decrease ([3]; 1 mg/kg PO): 35.7* % | Serum Cholest. % Decrease ([3]; 10 mg/kg PO): 65.0* %
